Laboratory results reported in patent US9511058B2, “Methods for using carboxamide, sulfonamide and amine compounds” (Rigel Pharmaceuticals, Inc., priority 2010, dated 2016).
pEC50: −log10 of the molar value.

Molecular target: AMPK
Assay: AMPK activation, enzyme-linked immunosorbent assay
Assay type: biochemical

Row | SMILES | pEC50 (compounds of Table 2 (Table 7)) | pEC50 (compounds of Table 3 (Table 8))
1 | NC(=O)c1ccc(CN2CCC(NC(=O)c3ccc4[nH]c5c(c4c3)CN(Cc3ccc(C(F)(F)F)cc3)CC5)CC2)cc1 [2-52, N-(1-(4-carbamoyl-benzyl)piperidin-4-yl)-2-(4-(trifluoromethyl)benzyl)-2,3,4,5-tetrahydro-1H-pyrido [4,3-b]indole-8-carboxamide] | 5.30 to 6.00 | 
2 | Cn1cnc(CN2CCC(NC(=O)c3ccc4[nH]c5c(c4c3)CN(Cc3ccc(C(F)(F)F)cc3)CC5)CC2)c1 [2-53, N-(1-((1-methyl-1H-imidazol-4-yl)methyl)piperidin-4-yl)-2-(4-(trifluoromethyl)benzyl)-2,3,4,5-tetrahydro-1H-pyrido [4,3-b]indole-8-carboxamide] | 4.30 to 5.00 | 
3 | O=C(NC1CCN(Cc2cocn2)CC1)c1ccc2[nH]c3c(c2c1)CN(Cc1ccc(C(F)(F)F)cc1)CC3 [2-54, N-(1-(oxazol-4-ylmethyl)piperidin-4-yl)-2-(4-(trifluoromethyl)benzyl)-2,3,4,5-tetrahydro-1H-pyrido [4,3-b]indole-8-carboxamide] | > 6.30 | 
4 | O=C(NC1CCNCC1)c1nc2ccc(OC3CCN(c4ccc(C(F)(F)F)cc4)CC3)cc2o1 [3-5, N-(piperidin-4-yl)-6-(1-(4-(trifluoromethyl)phenyl)piperidin-4-yloxy)benzo[d]oxazole-2-carboxamide] |  | 4.00 to 5.00
5 | O=C(c1nc2ccc(OC3CCN(c4ccc(C(F)(F)F)cc4)CC3)cc2o1)N1CC2CC1CN2Cc1ccncc1 (centres unmarked) [3-8, (5-(pyridin-4-ylmethyl)-2,5-diazabicyclo[2.2.1]heptan-2-yl)(6-(1-(4-(trifluoromethyl)phenyl)piperidin-4-yloxy)benzo[d]oxazol-2-yl)methanone] |  | 6.00 to 7.00
6 | NC(=O)c1ccc(CN2CC3CC2CN3C(=O)c2nc3ccc(OC4CCN(c5ccc(C(F)(F)F)cc5)CC4)cc3o2)cc1 (centres unmarked) [3-9, 4-((5-(6-(1-(4-(trifluoromethyl)phenyl)piperidin-4-yloxy)benzo[d]oxazole-2-carbonyl)-2,5-diazabicyclo[2.2.1]heptan-2-yl)methyl)benzamide] |  | 6.00 to 7.00
7 | N#Cc1ccc(CN2CC3CC2CN3C(=O)c2nc3ccc(OC4CCN(c5ccc(C(F)(F)F)cc5)CC4)cc3o2)cc1 (centres unmarked) [3-10, 4-((5-(6-(1-(4-(trifluoromethyl)phenyl)piperidin-4-yloxy)benzo[d]oxazole-2-carbonyl)-2,5-diazabicyclo[2.2.1]heptan-2-yl)methyl)benzonitrile] |  | 6.00 to 7.00
8 | O=C(c1ccncc1)N1CC2CC1CN2C(=O)c1nc2ccc(OC3CCN(c4ccc(C(F)(F)F)cc4)CC3)cc2o1 (centres unmarked) [3-11, (5-isonicotinoyl-2,5-diazabicyclo[2.2.1]heptan-2-yl)(6-(1-(4-(trifluoromethyl)phenyl)piperidin-4-yloxy)benzo[d]oxazol-2-yl)methanone] |  | 6.00 to 7.00
9 | CC(C)(C)OC(=O)N1CCC(NC(=O)c2cnc(OC3CCN(c4ccc(C(F)(F)F)cc4)CC3)cn2)CC1 [3-19, tert-butyl 4-(5-(1-(4-(trifluoromethyl)phenyl)piperidin-4-yloxy)pyrazine-2-carboxamido)piperidine-1-carboxylate] |  | 5.00 to 6.00
10 | CC(C)(C)OC(=O)N1CCC(Oc2ncc(C(=O)NC3CCN(Cc4ccc(C#N)cc4)CC3)s2)CC1 [3-26, tert-butyl 4-(5-(1-(4-cyanobenzyl)piperidin-4-ylcarbamoyl)thiazol-2-yloxy)piperidine-1-carboxylate] |  | 5.00 to 6.00
11 | N#Cc1ccc(CN2CCC(NC(=O)c3ccc(C(=O)N4CCN(c5ccc(Cl)cc5)CC4)cc3)CC2)cc1 [3-29, 4-(4-(4-chlorophenyl)piperazine-1-carbonyl)-N-(1-(4-cyanobenzyl)piperidin-4-yl)benzamide] |  | 4.00 to 5.00
12 | N#Cc1ccc(CN2CCC(NC(=O)c3ccc(C(=O)N4CCN(c5ccc(C(F)(F)F)cn5)CC4)cc3)CC2)cc1 [3-30, N-(1-(4-cyanobenzyl)piperidin-4-yl)-4-(4-(5-(trifluoromethyl)pyridin-2-yl)piperazine-1-carbonyl)benzamide] |  | > 7.00
13 | N#Cc1ccc(CN2CCC(NC(=O)c3ccc(C(=O)NC4CCN(Cc5ccc(C(F)(F)F)cc5)CC4)cc3)CC2)cc1 [3-31, N^1-(1-(4-cyanobenzyl)piperidin-4-yl)-N^4-(1-(4-(trifluoromethyl)benzyl)piperidin-4-yl)terephthalamide] |  | > 7.00
14 | N#Cc1ccc(CN2CCC(NC(=O)c3ccc(C(=O)NC4CCN(c5ccccc5)CC4)cc3)CC2)cc1 [3-32, N^1-(1-(4-cyanobenzyl)piperidin-4-yl)-N^4-(1-phenylpiperidin-4-yl)terephthalamide] |  | 4.00 to 5.00
15 | N#Cc1ccc(CN2CCC(NC(=O)c3ccc(C(=O)NC4CCN(Cc5ccccc5)CC4)cc3)CC2)cc1 [3-33, N^1-(1-benzylpiperidin-4-yl)-N^4-(1-(4-cyanobenzyl)piperidin-4-yl)terephthalamide] |  | 4.00 to 5.00
16 | N#Cc1ccc(CN2CCC(NC(=O)c3ccc4c(c3)CN(Cc3ccc(F)cc3)CC4)CC2)cc1 [3-34, N-(1-(4-cyanobenzyl)piperidin-4-yl)-2-(4-fluorobenzyl)-1,2,3,4-tetrahydroisoquinoline-7-carboxamide] |  | > 7.00
17 | O=C(NC1CCN(Cc2cccnc2)CC1)c1ccc2c(c1)CN(Cc1ccc(F)cc1)CC2 [3-35, 2-(4-fluorobenzyl)-N-(1-(pyridin-3-ylmethyl)piperidin-4-yl)-1,2,3,4-tetrahydroisoquinoline-7-carboxamide] |  | 5.00 to 6.00

The next lines start with the values.

Row | pEC50 (compounds of Table 2 (Table 7)) | pEC50 (compounds of Table 3 (Table 8)) | SMILES
18 |  | > 7.00 | CC(C)(C)OC(=O)N1CCC(NC(=O)c2nc3ccc(OC4CCN(c5ccc(C(F)(F)F)cc5)CC4)cc3o2)CC1 [3-1, tert-butyl 4-(6-(1-(4-(trifluoromethyl)phenyl)piperidin-4-yloxy)benzo[d]oxazole-2-carboxamido)piperidine-1-carboxylate]
19 |  | > 7.00 | N#Cc1ccc(CN2CCC(NC(=O)c3nc4ccc(OC5CCN(c6ccc(C(F)(F)F)cc6)CC5)cc4o3)CC2)cc1 [3-2, N-(1-(4-cyanobenzyl)piperidin-4-yl)-6-(1-(4-(trifluoromethyl)phenyl)piperidin-4-yloxy)benzo[d]oxazole-2-carboxamide]
20 |  | > 7.00 | O=C(NC1CCN(Cc2ccncc2)CC1)c1nc2ccc(OC3CCN(c4ccc(C(F)(F)F)cc4)CC3)cc2o1 [3-3, N-(1-(pyridin-4-ylmethyl)piperidin-4-yl)-6-(1-(4-(trifluoromethyl)phenyl)piperidin-4-yloxy)benzo[d]oxazole-2-carboxamide]
21 |  | > 7.00 | O=C(NC1CCN(C(=O)c2ccc(F)cc2)CC1)c1nc2ccc(OC3CCN(c4ccc(C(F)(F)F)cc4)CC3)cc2o1 [3-4, N-(1-(4-fluorobenzoyl)piperidin-4-yl)-6-(1-(4-(trifluoromethyl)phenyl)piperidin-4-yloxy)benzo[d]oxazole-2-carboxamide]
22 |  | > 7.00 | N#Cc1ccc(C(=O)N2CCC(NC(=O)c3nc4ccc(OC5CCN(c6ccc(C(F)(F)F)cc6)CC5)cc4o3)CC2)cc1 [3-6, N-(1-(4-cyanobenzoyl)piperidin-4-yl)-6-(1-(4-(trifluoromethyl)phenyl)piperidin-4-yloxy)benzo[d]oxazole-2-carboxamide]
23 |  | > 7.00 | N#Cc1ccc(C(=O)N2CC3CC2CN3C(=O)c2nc3ccc(OC4CCN(c5ccc(C(F)(F)F)cc5)CC4)cc3o2)cc1 (centres unmarked) [3-12, 4-(5-(6-(1-(4-(trifluoromethyl)phenyl)piperidin-4-yloxy)benzo[d]oxazole-2-carbonyl)-2,5-diazabicyclo[2.2.1]heptane-2-carbonyl)benzonitrile]
24 |  | > 7.00 | O=C(c1ccc(F)cc1)N1CC2CC1CN2C(=O)c1nc2ccc(OC3CCN(c4ccc(C(F)(F)F)cc4)CC3)cc2o1 (centres unmarked) [3-13, (5-(4-fluorobenzoyl)-2,5-diazabicyclo[2.2.1]heptan-2-yl)(6-(1-(4-(trifluoromethyl)phenyl)piperidin-4-yloxy)benzo[d]oxazol-2-yl)methanone]
25 |  | > 7.00 | O=C(NC1CCN(Cc2ccncc2)CC1)c1cn2ccc(OC3CCN(c4ccc(C(F)(F)F)cc4)CC3)cc2n1 [3-17, N-(1-(pyridin-4-ylmethyl)piperidin-4-yl)-7-(1-(4-(trifluoromethyl)phenyl)piperidin-4-yloxy)imidazo[1,2-a]pyridine-2-carboxamide]
26 |  | > 7.00 | N#Cc1ccc(CN2CCC(NC(=O)c3cn4ccc(OC5CCN(c6ccc(C(F)(F)F)cc6)CC5)cc4n3)CC2)cc1 [3-18, N-(1-(4-cyanobenzyl)piperidin-4-yl)-7-(1-(4-(trifluoromethyl)phenyl)piperidin-4-yloxy)imidazo[1,2-a]pyridine-2-carboxamide]
27 |  | > 7.00 | O=C(NC1CCN(Cc2ccncc2)CC1)c1cnc(OC2CCN(c3ccc(C(F)(F)F)cc3)CC2)cn1 [3-21, N-(1-(pyridin-4-ylmethyl)piperidin-4-yl)-5-(1-(4-(trifluoromethyl)phenyl)piperidin-4-yloxy)pyrazine-2-carboxamide]
28 |  | > 7.00 | N#Cc1ccc(CN2CCC(NC(=O)c3cnc(OC4CCN(c5ccc(C(F)(F)F)cc5)CC4)cn3)CC2)cc1 [3-22, N-(1-(4-cyanobenzyl)piperidin-4-yl)-5-(1-(4-(trifluoromethyl)phenyl)piperidin-4-yloxy)pyrazine-2-carboxamide]
29 |  | > 7.00 | N#Cc1ccc(CN2CCC(NC(=O)c3cnc(OC4CCN(c5ccc(C(F)(F)F)cc5)CC4)s3)CC2)cc1 [3-23, N-(1-(4-cyanobenzyl)piperidin-4-yl)-2-(1-(4-(trifluoromethyl)phenyl)piperidin-4-yloxy)thiazole-5-carboxamide]
30 |  | > 7.00 | N#Cc1ccc(CN2CCC(NC(=O)c3cnc(OC4CCN(c5ccc(C#N)cc5)CC4)s3)CC2)cc1 [3-24, N-(1-(4-cyanobenzyl)piperidin-4-yl)-2-(1-(4-cyanophenyl)piperidin-4-yloxy)thiazole-5-carboxamide]
31 |  | > 7.00 | N#Cc1ccc(CN2CCC(NC(=O)c3cnc(OC4CCN(Cc5ccc(C(F)(F)F)cc5)CC4)s3)CC2)cc1 [3-25, N-(1-(4-cyanobenzyl)piperidin-4-yl)-2-(1-(4-(trifluoromethyl)benzyl)piperidin-4-yloxy)thiazole-5-carboxamide]
32 |  | > 7.00 | N#Cc1ccc(CN2CCC(NC(=O)c3ccc(C(=O)N4CCN(Cc5ccc(Cl)cc5)CC4)cc3)CC2)cc1 [3-28, 4-(4-(4-chlorobenzyl)piperazine-1-carbonyl)-N-(1-(4-cyanobenzyl)piperidin-4-yl)benzamide]
